Experimental data from publication PMC3975393, “Structure of N-Terminal Sequence Asp-Ala-Glu-Phe-Arg-His-Asp-Ser of Aβ-Peptide with Phospholipase A2 from Venom of Andaman Cobra Sub-Species Naja naja sagittifera at 2.0 Å Resolution” (International Journal of Molecular Sciences, 2014).

Test system: PLA2
Assay: X-ray co-crystal structure of the complex with PLA2 (PDB 3JQ5)
Assay type: binding, Naja naja sagittifera
Settings: 2.0 Å resolution, peptide at 10-fold high molar concentration, 10 mM sodium phosphate pH 6.0, 1 mM CaCl2, 3 h incubation
Procedure: The lyophilized samples of crude cobra venom of Naja naja sagittifera were obtained from Irula Snake Catchers Industrial Cooperative Society, Chennai, India. The crude venom was dissolved in 50 mM Tris-HCl, 100 mM NaCl, pH 7.0 at 100 mg/mL concentration and centrifuged at 12,000× g for 10 min to remove insoluble material. The collected supernatant was size fractionated on Sephadex G-100 column (100 × 2 cm) pre-equilibrated with 50 mM Tris-HCl, 100 mM NaCl, pH 7.0. The column was eluted with the same buffer at a flow rate of 6 mL/h. The peak corresponding to molecular weight of 14 kDa on SDS-PAGE and showing PLA2 activity was pooled for further purification. The pooled fractions were desalted and dialysed against 50 mM Tris-HCl, pH 7.0 and loaded on CM Sephadex C-50 column (Pharmacia, Uppsala, Sweden). The column was washed with the above buffer. The unbound fractions were pooled and dialysed against ammonium acetate buffer, pH 6.0. […] The N-terminal sequence of the first 15 residues was determined. […]
The crystal structure was determined with molecular replacement method using auto-AMoRe from the CCP4 software suit (Collaborative Computational Project, Number 4, 1994). […] The rotation and translation functions calculated with data in the resolution range, 12.0–3.5 Å yielded a unique solution with the first peak being very distinct. […]

Substance: Asp-Ala-Glu-Phe-Arg-His-Asp-Ser [DAEFRHDS]
- binding in the substrate binding site / hydrophobic channel of PLA2: strongly interacted with the non-polar binding-cavity residues of PLA2
- binding in the substrate binding site / hydrophobic channel of PLA2 (listed as octa-peptide): fitted well in the substrate binding site of enzyme
